Reference: PubChem BioAssay (NCI)
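At the GI50, growth is halved. At the TGI there is no net growth.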

Assays:
Experiment in all cases: NCI tumour cell line growth inhibition, 384-well format
NCI-H23 lung = test system: NCI-H23 lung
COLO 205 colon = test system: COLO 205 colon
U251 glioblastoma = test system: U251 glioblastoma
KM12 colon = test system: KM12 colon
SW-620 colon = test system: SW-620 colon
PC-3 prostate = test system: PC-3 prostate
SK-OV-3 ovarian = test system: SK-OV-3 ovarian
T-47D breast = test system: T-47D breast
HOP-62 NSCLC = test system: HOP-62 NSCLC
UACC-257 melanoma = test system: UACC-257 melanoma
A549 NSCLC = test system: A549 NSCLC
786-0 renal = test system: 786-0 renal
CAKI-1 renal = test system: CAKI-1 renal
MCF7 breast = test system: MCF7 breast
UO-31 renal = test system: UO-31 renal
HOP-92 NSCLC = test system: HOP-92 NSCLC
HS 578T breast = test system: HS 578T breast
HL-60(TB) leukemia = test system: HL-60(TB) leukemia
MOLT-4 leukemia = test system: MOLT-4 leukemia
OVCAR-3 ovarian = test system: OVCAR-3 ovarian
TK-10 renal = test system: TK-10 renal
UACC-62 melanoma = test system: UACC-62 melanoma
SF-268 CNS = test system: SF-268 CNS
HCT-15 colon = test system: HCT-15 colon
NCI-H226 lung = test system: NCI-H226 lung
SNB-19 CNS = test system: SNB-19 CNS
SR leukemia = test system: SR leukemia
OVCAR-5 ovarian = test system: OVCAR-5 ovarian
NCI-H460 NSCLC = test system: NCI-H460 NSCLC
HCT-116 colon = test system: HCT-116 colon
SK-MEL-5 melanoma = test system: SK-MEL-5 melanoma
RXF 393 renal = test system: RXF 393 renal
SK-MEL-2 melanoma = test system: SK-MEL-2 melanoma
SK-MEL-28 melanoma = test system: SK-MEL-28 melanoma
BT-549 breast = test system: BT-549 breast
M14 melanoma = test system: M14 melanoma
MDA-MB-435 melanoma = test system: MDA-MB-435 melanoma
OVCAR-8 ovarian = test system: OVCAR-8 ovarian
MDA-MB-468 breast = test system: MDA-MB-468 breast
MALME-3M melanoma = test system: MALME-3M melanoma
SNB-75 CNS = test system: SNB-75 CNS
ACHN renal = test system: ACHN renal
A498 renal = test system: A498 renal
SF-295 CNS = test system: SF-295 CNS
HT29 colon = test system: HT29 colon
NCI-H522 lung = test system: NCI-H522 lung
EKVX NSCLC = test system: EKVX NSCLC
NCI-H322M lung = test system: NCI-H322M lung
MDA-MB-231 breast = test system: MDA-MB-231 breast
SF-539 CNS = test system: SF-539 CNS
DU-145 prostate = test system: DU-145 prostate
OVCAR-4 ovarian = test system: OVCAR-4 ovarian
SN12C renal = test system: SN12C renal
K-562 leukemia = test system: K-562 leukemia
IGROV1 ovarian = test system: IGROV1 ovarian

Which results are given for `CCOC(=O)[C@@H](N)CCC(=O)N[C@@H](CSCc1ccccc1)C(=O)N[C@@H](C(=O)OCC)c1ccccc1`?
GI50 (NCI-H23 lung): 16.2 µM; TGI (NCI-H23 lung): 32.5 µM; GI50 (COLO 205 colon): 11.5 µM; TGI (COLO 205 colon): 23.8 µM; GI50 (U251 glioblastoma): 11.2 µM; TGI (U251 glioblastoma): 23.5 µM; GI50 (KM12 colon): 6.17 µM; TGI (KM12 colon): 18.5 µM; GI50 (SW-620 colon): 9.33 µM; TGI (SW-620 colon): 21.4 µM; GI50 (PC-3 prostate): 14.8 µM; TGI (PC-3 prostate): 28.1 µM; GI50 (SK-OV-3 ovarian): 13.9 µM; TGI (SK-OV-3 ovarian): 26.9 µM; GI50 (T-47D breast): 15.5 µM; TGI (T-47D breast): 29 µM; GI50 (HOP-62 NSCLC): 9.1 µM; TGI (HOP-62 NSCLC): 24 µM; GI50 (UACC-257 melanoma): 16.9 µM; TGI (UACC-257 melanoma): 30.6 µM; GI50 (A549 NSCLC): 25.3 µM; TGI (A549 NSCLC): > 100 µM; GI50 ([…]-0 renal): 12.3 µM; TGI (786-0 renal): 24.8 µM; GI50 (CAKI-1 renal): 8.03 µM; TGI (CAKI-1 renal): 20.4 µM; GI50 (MCF7 breast): 5.51 µM; TGI (MCF7 breast): 19 µM; GI50 (UO-31 renal): 38.6 µM; TGI (UO-31 renal): > 100 µM; GI50 (HOP-92 NSCLC): 10.4 µM; TGI (HOP-92 NSCLC): 22.2 µM; GI50 (HS 578T breast): 15.3 µM; TGI (HS 578T breast): 28.6 µM; GI50 (HL-60(TB) leukemia): 18.5 µM; TGI (HL-60(TB) leukemia): 32.6 µM; GI50 (MOLT-4 leukemia): 2.01 µM; TGI (MOLT-4 leukemia): 3.57 µM; GI50 (OVCAR-3 ovarian): 13.5 µM; TGI (OVCAR-3 ovarian): 26.4 µM; GI50 (TK-10 renal): 14.5 µM; TGI (TK-10 renal): 27.9 µM; GI50 (UACC-62 melanoma): 10.5 µM; TGI (UACC-62 melanoma): 22.4 µM; GI50 (SF-268 CNS): 10.5 µM; TGI (SF-268 CNS): 22.4 µM; GI50 (HCT-15 colon): 20.1 µM; TGI (HCT-15 colon): 40.8 µM; GI50 (NCI-H226 lung): 11.8 µM; TGI (NCI-H226 lung): 25.6 µM; GI50 (SNB-19 CNS): 15.7 µM; TGI (SNB-19 CNS): 30.3 µM; GI50 (SR leukemia): 1.82 µM; TGI (SR leukemia): 3.43 µM; GI50 (OVCAR-5 ovarian): 32.3 µM; TGI (OVCAR-5 ovarian): > 100 µM; GI50 (NCI-H460 NSCLC): 7.59 µM; TGI (NCI-H460 NSCLC): 20.1 µM; GI50 (HCT-116 colon): 5.21 µM; TGI (HCT-116 colon): 17 µM; GI50 (SK-MEL-5 melanoma): 15.3 µM; TGI (SK-MEL-5 melanoma): 29 µM; GI50 (RXF 393 renal): 10.8 µM; TGI (RXF 393 renal): 22.7 µM; GI50 (SK-MEL-2 melanoma): 15.5 µM; TGI (SK-MEL-2 melanoma): 29 µM; GI50 (SK-MEL-28 melanoma): 16.5 µM; TGI (SK-MEL-28 melanoma): 30.1 µM; GI50 (BT-549 breast): 17.5 µM; TGI (BT-549 breast): 31.3 µM; GI50 (M14 melanoma): 16.8 µM; TGI (M14 melanoma): 30.4 µM; GI50 (MDA-MB-435 melanoma): 17.3 µM; TGI (MDA-MB-435 melanoma): 31.2 µM; GI50 (OVCAR-8 ovarian): 10.8 µM; TGI (OVCAR-8 ovarian): 22.8 µM; GI50 (MDA-MB-468 breast): 5.45 µM; TGI (MDA-MB-468 breast): 17.2 µM; GI50 (MALME-3M melanoma): 16.4 µM; TGI (MALME-3M melanoma): 30.1 µM; GI50 (SNB-75 CNS): 12.2 µM; TGI (SNB-75 CNS): 24.7 µM; GI50 (ACHN renal): 8.55 µM; TGI (ACHN renal): 20.9 µM; GI50 (A498 renal): 11.6 µM; TGI (A498 renal): 24.1 µM; GI50 (SF-295 CNS): 13.1 µM; TGI (SF-295 CNS): 26.1 µM; GI50 (HT29 colon): 8.24 µM; TGI (HT29 colon): 20.7 µM; GI50 (NCI-H522 lung): 14.4 µM; TGI (NCI-H522 lung): 27.6 µM; GI50 (EKVX NSCLC): 20.4 µM; TGI (EKVX NSCLC): 43.6 µM; GI50 (NCI-H322M lung): 18.1 µM; TGI (NCI-H322M lung): 60 µM; GI50 (MDA-MB-231 breast): 11.9 µM; TGI (MDA-MB-231 breast): 24.2 µM; GI50 (SF-539 CNS): 12.5 µM; TGI (SF-539 CNS): 25.1 µM; GI50 (DU-145 prostate): 19.2 µM; TGI (DU-145 prostate): 45.3 µM; GI50 (OVCAR-4 ovarian): 16 µM; TGI (OVCAR-4 ovarian): 31.4 µM; GI50 (SN12C renal): 15 µM; TGI (SN12C renal): 28.3 µM; GI50 (K-562 leukemia): 10.6 µM; TGI (K-562 leukemia): 22.7 µM; GI50 (IGROV1 ovarian): 13 µM; TGI (IGROV1 ovarian): 25.9 µM
